{"source": "BindingDB's records for doi:10.1074/jbc.M113.457119", "about": "(Institut National De Recherche Agronomique (Inra)-Vetagro …, 2013)", "test_in_all_cases": "VKOR Activity Assay", "details_in_all_cases": "pH 7.4; 37 °C", "key": {"[1]": {"target": "T1, Vitamin K epoxide reductase complex subunit 1 (Rattus norvegicus, UniProt Q6TEK4)", "T1 sequence (Q6TEK4 whole entry)": "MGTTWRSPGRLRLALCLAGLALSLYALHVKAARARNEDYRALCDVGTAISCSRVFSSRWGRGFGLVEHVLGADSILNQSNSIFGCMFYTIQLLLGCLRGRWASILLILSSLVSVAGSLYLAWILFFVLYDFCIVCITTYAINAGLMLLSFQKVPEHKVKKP", "description": "(§1) Briefly, standard reactions were performed in 200 mM Hepes buffer, pH 7.4, containing 150 mM KCl, 1 mM dithiothreitol, 0.25 to 2 g liter-1 of total proteins containing membrane VKORC1. The reaction was started by the addition of vit K1>O solution in 1% Triton X-100 and incubated at 37 °C for 30 min. […] After incubation at 37 °C for 30 min, the reaction was stopped by adding 4 ml of iced 1:1 isopropyl alcohol/hexane solution. After centrifugation at 5000 x g for 10 min, the hexane layer was removed and driedunder nitrogen. The dry residue was immediately dissolved in 0.2 ml of isopropyl alcohol, and the reaction product was analyzed by liquid chromatography-mass spectrometry."}, "[2]": {"target": "T2, Vitamin K epoxide reductase complex subunit 1-like protein 1 (Rattus norvegicus, UniProt Q6TEK3)", "T2 sequence (Q6TEK3 whole entry)": "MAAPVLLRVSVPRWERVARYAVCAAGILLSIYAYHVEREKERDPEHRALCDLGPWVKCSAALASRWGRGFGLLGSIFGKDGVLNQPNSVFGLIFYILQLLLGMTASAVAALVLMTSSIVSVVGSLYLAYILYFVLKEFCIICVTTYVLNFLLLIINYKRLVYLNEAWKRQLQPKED", "description": "as §1"}, "[3]": {"target": "T3, Vitamin K epoxide reductase complex subunit 1-like protein 1 (Homo sapiens, UniProt Q8N0U8)", "T3 sequence (Q8N0U8 whole entry)": "T2 sequence (Q6TEK3 whole entry) with V112I, V119M, V143I, T144V, E175Q", "description": "as §1"}}, "note": "Substitutions are numbered along the chain they refer to."}
{"compound": "CC(=O)C[C@H](c1ccccc1)c1c(O)c2ccccc2oc1=O", "note": "[2-hydroxy-3-(3-oxo-1-phenylbutyl)-4H-chromen-4-one]", "values": [{"measurement": "Ki", "setting": "[1]", "value": 0.6, "unit": "µM"}, {"measurement": "Ki", "setting": "[2]", "value": 32.6, "unit": "µM"}, {"measurement": "Ki", "setting": "[3]", "value": 52, "unit": "µM"}]}
